Assay results taken from patent publication US12146004B2, “Polymyxin compounds and uses thereof” (priority 2014, dated 2024).
≈ marks a conversion by molar mass, not a printed value. Read-outs that look alike come from different tables or passages of the source. Bridge positions count the residues as written; N and C are the ends. Square brackets hold non-standard residues; d marks the D form. Peptide text beside a SMILES is read from it. * marks the point of attachment. ξ: configuration not given here. dCha = N[C@H](CC1CCCCC1)C(=O)O; Thr(3ξ) = CC(O)[C@H](N)C(=O)O; X25 = CCCCO[C@@H](CCN)C(=O)*; X15 = NCCC(CC1CCCC1)C(=O)*; Dab = NCC[C@H](N)C(=O)O; Dap = NC[C@H](N)C(=O)O

How the values were obtained:
Type in all cases: cell-based
Klebsiella pneumoniae = test system: Klebsiella pneumoniae
Method in brief: (§1)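 Values are minimum inhibitory concentrations in μg/mL, measured across a panel of up to nine strains of each Gram-negative pathogen, some Polymyxin-elevated or resistant.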

Acinetobacter baumannii = test system: Acinetobacter baumannii
Method in brief: as §1

Pseudomonas aeruginosa = test system: Pseudomonas aeruginosa
Method in brief: as §1

Escherichia coli = test system: Escherichia coli
Method in brief: as §1

SMILES	MIC K. pneumoniae 065 (Klebsiella pneumoniae) [µg/mL]	MIC K. pneumoniae ATCC 13882 (Klebsiella pneumoniae) [µg/mL]	MIC A. baumanii ATCC BAA-747 (Acinetobacter baumannii) [µg/mL]	MIC A. baumanii NCTC 13424 (Acinetobacter baumannii) [µg/mL]	MIC P. aeruginosa ATCC 27853 (Pseudomonas aeruginosa) [µg/mL]	MIC P. aeruginosa CCUG 59347 (Pseudomonas aeruginosa) [µg/mL]	MIC E. coli 058 (Escherichia coli) [µg/mL]	MIC E. coli ATCC 25922 (Escherichia coli) [µg/mL]	MIC K. pneumoniae 063 (Klebsiella pneumoniae) [µg/mL]	MIC A. baumanii 053 (Acinetobacter baumannii) [µg/mL]	MIC A. baumanii 056 (Acinetobacter baumannii) [µg/mL]	MIC P. aeruginosa 068 (Pseudomonas aeruginosa) [µg/mL]	MIC P. aeruginosa 070 (Pseudomonas aeruginosa) [µg/mL]	MIC E. coli 061 (Escherichia coli) [µg/mL]	other results
CC(C)C[C@@H]1NC(=O)[C@@H](CC2CCCCC2)NC(=O)[C@H](CCN)NC(=O)[C@@H](NC(=O)[C@H](CN)NC(=O)[C@@H](NC(=O)C(CCN)CC2CCCC2)[C@@H](C)O)CCNC(=O)[C@H]([C@@H](C)O)NC(=O)[C@H](CCN)NC(=O)[C@H](CCN)NC1=O (stereo partly drawn) [Example 75, 4-amino-2-(cyclopentylmethyl) butanoyl L-Thr-L-Dap-polymyxin [D-cyclohexylalanine]-6 heptapeptide.] (X15-T[Dap][Dab][Dab][dCha]L[Dab][Dab]T; lactam 3-C)	1 (≈ 0.891 µM)	0.125 (≈ 0.111 µM)	0.125 (≈ 0.111 µM)	0.125 (≈ 0.111 µM)	0.25 (≈ 0.223 µM)	0.25 (≈ 0.223 µM)	2 (≈ 1.78 µM)	0.125 (≈ 0.111 µM)	16 (≈ 14.3 µM)	>64	64 (≈ 57 µM)	2 (≈ 1.78 µM)	2 (≈ 1.78 µM)	16 (≈ 14.3 µM)	
CC(C)C[C@@H]1NC(=O)[C@@H](CC2CCCCC2)NC(=O)[C@H](CCN)NC(=O)[C@@H](NC(=O)[C@H](CN)NC(=O)[C@@H](NC(=O)CC(CN)Cc2ccccc2)[C@@H](C)O)CCNC(=O)[C@H]([C@@H](C)O)NC(=O)[C@H](CCN)NC(=O)[C@H](CCN)NC1=O (single isomer, unassigned; isomer 2) [Example 59, 4-amino-3-benzylbutanoyl L-Thr-L-Dap-polymyxin [D-cyclohexylalanine]-6 heptapeptide. Isomer 2]															MIC K. pneumoniae 063 (Klebsiella pneumoniae; strain 063): 32 µg/mL (≈ 28.3 µM); MIC K. pneumoniae 065 (Klebsiella pneumoniae; strain 065): 2 µg/mL (≈ 1.77 µM); MIC K. pneumoniae ATCC 4352 (Klebsiella pneumoniae; strain ATCC 4352): 0.125 µg/mL (≈ 0.111 µM); MIC K. pneumoniae ATCC 13882 (Klebsiella pneumoniae; strain ATCC 13882): 0.25 µg/mL (≈ 0.221 µM); MIC A. baumanii 053 (Acinetobacter baumannii; strain 053): 32 µg/mL (≈ 28.3 µM); MIC A. baumanii 056 (Acinetobacter baumannii; strain 056): 16 µg/mL (≈ 14.2 µM); MIC A. baumanii ATCC BAA-747 (Acinetobacter baumannii; strain ATCC BAA-747): 0.03 µg/mL (≈ 0.0265 µM); MIC A. baumanii NCTC 13424 (Acinetobacter baumannii; strain NCTC 13424): 0.06 µg/mL (≈ 0.0531 µM); MIC P. aeruginosa 068 (Pseudomonas aeruginosa; strain 068): 4 µg/mL (≈ 3.54 µM); MIC P. aeruginosa 070 (Pseudomonas aeruginosa; strain 070): 8 µg/mL (≈ 7.08 µM); MIC P. aeruginosa ATCC 27853 (Pseudomonas aeruginosa; strain ATCC 27853): 0.25 µg/mL (≈ 0.221 µM); MIC P. aeruginosa CCUG 59347 (Pseudomonas aeruginosa; strain CCUG 59347): 0.25 µg/mL (≈ 0.221 µM); MIC E. coli 058 (Escherichia coli; strain 058): 2 µg/mL (≈ 1.77 µM); MIC E. coli ATCC 25922 (Escherichia coli; strain ATCC 25922): 0.125 µg/mL (≈ 0.111 µM); MIC E. coli NCTC 9001 (Escherichia coli; strain NCTC 9001): 0.06 µg/mL (≈ 0.0531 µM)
CC(C)C[C@@H]1NC(=O)[C@@H](CC2CCCCC2)NC(=O)[C@H](CCN)NC(=O)[C@@H](NC(=O)[C@H](CCN)NC(=O)[C@@H](NC(=O)CC(CN)C2CCCCC2)[C@@H](C)O)CCNC(=O)[C@H]([C@@H](C)O)NC(=O)[C@H](CCN)NC(=O)[C@H](CCN)NC1=O (single isomer, unassigned; isomer 2) [Example 87, 4-amino-3-cyclohexylbutanoyl polymyxin [D-cyclohexylalanine-6]nonapeptide. Isomer 2]															MIC K. pneumoniae 063 (Klebsiella pneumoniae; strain 063): 16 µg/mL (≈ 14.1 µM); MIC K. pneumoniae 065 (Klebsiella pneumoniae; strain 065): 0.5 µg/mL (≈ 0.44 µM); MIC K. pneumoniae ATCC 13882 (Klebsiella pneumoniae; strain ATCC 13882): 0.25 µg/mL (≈ 0.22 µM); MIC A. baumanii 053 (Acinetobacter baumannii; strain 053): 64 µg/mL (≈ 56.3 µM); MIC A. baumanii 056 (Acinetobacter baumannii; strain 056): 64 µg/mL (≈ 56.3 µM); MIC A. baumanii ATCC BAA-747 (Acinetobacter baumannii; strain ATCC BAA-747): 0.25 µg/mL (≈ 0.22 µM); MIC A. baumanii NCTC 13424 (Acinetobacter baumannii; strain NCTC 13424): 0.125 µg/mL (≈ 0.11 µM); MIC P. aeruginosa 068 (Pseudomonas aeruginosa; strain 068): 2 µg/mL (≈ 1.76 µM); MIC P. aeruginosa 070 (Pseudomonas aeruginosa; strain 070): 8 µg/mL (≈ 7.04 µM); MIC P. aeruginosa ATCC 27853 (Pseudomonas aeruginosa; strain ATCC 27853): 0.25 µg/mL (≈ 0.22 µM); MIC P. aeruginosa CCUG 59347 (Pseudomonas aeruginosa; strain CCUG 59347): 0.5 µg/mL (≈ 0.44 µM); MIC E. coli 058 (Escherichia coli; strain 058): 4 µg/mL (≈ 3.52 µM); MIC E. coli 061 (Escherichia coli; strain 061): 16 µg/mL (≈ 14.1 µM); MIC E. coli ATCC 25922 (Escherichia coli; strain ATCC 25922): 0.125 µg/mL (≈ 0.11 µM); MIC E. coli NCTC 9001 (Escherichia coli; strain NCTC 9001): 0.125 µg/mL (≈ 0.11 µM)
CCCCO[C@@H](CCN)C(=O)N[C@H](C(=O)N[C@@H](CN)C(=O)N[C@H]1CCNC(=O)[C@H]([C@@H](C)O)NC(=O)[C@H](CCN)NC(=O)[C@H](CCN)NC(=O)[C@H](CC(C)C)NC(=O)[C@@H](CC2CCCCC2)NC(=O)[C@H](CCN)NC1=O)C(C)O (stereo partly drawn) [Example 46, (S)-4-amino-2-butoxybutanoyl L-Thr-L-Dap-polymyxin [D-cyclohexylalanine]-6 heptapeptide.] (X25-[Thr(3ξ)][Dap][Dab][Dab][dCha]L[Dab][Dab]T; lactam 3-C)	2 (≈ 1.8 µM)	0.25 (≈ 0.225 µM)	0.125 (≈ 0.112 µM)	0.125 (≈ 0.112 µM)	0.5 (≈ 0.449 µM)	0.5 (≈ 0.449 µM)	8 (≈ 7.19 µM)	0.125 (≈ 0.112 µM)	>64	>64	>64	16 (≈ 14.4 µM)	32 (≈ 28.8 µM)		

Continued, in another order:

MIC K. pneumoniae 065 (Klebsiella pneumoniae) [µg/mL]	MIC K. pneumoniae ATCC 13882 (Klebsiella pneumoniae) [µg/mL]	MIC A. baumanii ATCC BAA-747 (Acinetobacter baumannii) [µg/mL]	MIC A. baumanii NCTC 13424 (Acinetobacter baumannii) [µg/mL]	MIC P. aeruginosa ATCC 27853 (Pseudomonas aeruginosa) [µg/mL]	MIC P. aeruginosa CCUG 59347 (Pseudomonas aeruginosa) [µg/mL]	MIC E. coli 058 (Escherichia coli) [µg/mL]	MIC E. coli ATCC 25922 (Escherichia coli) [µg/mL]	MIC K. pneumoniae 063 (Klebsiella pneumoniae) [µg/mL]	MIC A. baumanii 053 (Acinetobacter baumannii) [µg/mL]	MIC A. baumanii 056 (Acinetobacter baumannii) [µg/mL]	MIC P. aeruginosa 068 (Pseudomonas aeruginosa) [µg/mL]	MIC P. aeruginosa 070 (Pseudomonas aeruginosa) [µg/mL]	MIC E. coli 061 (Escherichia coli) [µg/mL]	SMILES	other results
2 (≈ 1.75 µM)	0.125 (≈ 0.109 µM)	1 (≈ 0.874 µM)	2 (≈ 1.75 µM)	0.5 (≈ 0.437 µM)	0.5 (≈ 0.437 µM)	8 (≈ 6.99 µM)	0.125 (≈ 0.109 µM)							CC(C)C[C@@H]1NC(=O)[C@@H](CC2CCCCC2)NC(=O)[C@H](CCN)NC(=O)[C@@H](NC(=O)[C@H](CCN)NC(=O)[C@@H](NC(=O)C(CCN)Cc2ccccc2)C(C)O)CCNC(=O)[C@H]([C@@H](C)O)NC(=O)[C@H](CCN)NC(=O)[C@H](CCN)NC1=O (single isomer, unassigned; isomer 2) [Example 36, 4-amino-2-benzylbutanoyl-polymyxin [D-cyclohexylalanine]-6 nonapeptide. isomer 2]	
2 (≈ 1.69 µM)	0.125 (≈ 0.106 µM)	0.125 (≈ 0.106 µM)	0.03 (≈ 0.0254 µM)	0.125 (≈ 0.106 µM)	0.125 (≈ 0.106 µM)	2 (≈ 1.69 µM)	0.06 (≈ 0.0508 µM)	32 (≈ 27.1 µM)	64 (≈ 54.2 µM)	16 (≈ 13.5 µM)	4 (≈ 3.39 µM)	8 (≈ 6.77 µM)	8 (≈ 6.77 µM)	CC(C)C[C@@H]1NC(=O)[C@@H](CC2CCCCC2)NC(=O)[C@H](CCN)NC(=O)[C@@H](NC(=O)[C@H](CN)NC(=O)[C@@H](NC(=O)C(CCN)OCc2cccc(Cl)c2)[C@@H](C)O)CCNC(=O)[C@H]([C@@H](C)O)NC(=O)[C@H](CCN)NC(=O)[C@H](CCN)NC1=O (single isomer, unassigned; isomer 1) [Example 82, 4-amino-2-((3-chlorobenzyl)oxy) butanoyl L-Thr-L-Dap-polymyxin [D-cyclohexylalanine-6]heptapeptide. Isomer 1]	MIC E. coli NCTC 9001 (Escherichia coli): 0.015 µg/mL (≈ 0.0127 µM)
8 (≈ 7.04 µM)	0.125 (≈ 0.11 µM)	0.25 (≈ 0.22 µM)	0.25 (≈ 0.22 µM)	0.25 (≈ 0.22 µM)	0.5 (≈ 0.44 µM)	8 (≈ 7.04 µM)	0.125 (≈ 0.11 µM)	64 (≈ 56.3 µM)	32 (≈ 28.2 µM)	16 (≈ 14.1 µM)	8 (≈ 7.04 µM)	32 (≈ 28.2 µM)	32 (≈ 28.2 µM)	CC(C)C[C@@H]1NC(=O)[C@@H](CC2CCCCC2)NC(=O)[C@H](CCN)NC(=O)[C@@H](NC(=O)[C@H](CCN)NC(=O)[C@@H](NC(=O)C(CCN)c2cccs2)[C@@H](C)O)CCNC(=O)[C@H]([C@@H](C)O)NC(=O)[C@H](CCN)NC(=O)[C@H](CCN)NC1=O (single isomer, unassigned; isomer 2) [Example 70, 4-amino-2-(thiophen-2-yl)butanoyl polymyxin [D-cyclohexylalanine]-6 nonapeptide isomer 2]	
0.5 (≈ 0.44 µM)	0.25 (≈ 0.22 µM)	0.25 (≈ 0.22 µM)	0.06 (≈ 0.0528 µM)	0.25 (≈ 0.22 µM)	0.5 (≈ 0.44 µM)	4 (≈ 3.52 µM)	0.06 (≈ 0.0528 µM)	16 (≈ 14.1 µM)	>64	64 (≈ 56.3 µM)	4 (≈ 3.52 µM)	8 (≈ 7.04 µM)	16 (≈ 14.1 µM)	CC(C)C[C@@H]1NC(=O)[C@@H](CC2CCCCC2)NC(=O)[C@H](CCN)NC(=O)[C@@H](NC(=O)[C@H](CCN)NC(=O)[C@@H](NC(=O)C(CCN)C2CCCCC2)[C@@H](C)O)CCNC(=O)[C@H]([C@@H](C)O)NC(=O)[C@H](CCN)NC(=O)[C@H](CCN)NC1=O (single isomer, unassigned; isomer 2) [Example 69, 4-amino-2-cyclohexylbutanoyl polymyxin [D-cyclohexylalanine]-6 nonapeptide isomer 2]	MIC K. pneumoniae ATCC 4352 (Klebsiella pneumoniae): 0.25 µg/mL (≈ 0.22 µM); MIC E. coli NCTC 9001 (Escherichia coli): 0.03 µg/mL (≈ 0.0264 µM)
4 (≈ 3.54 µM)	0.25 (≈ 0.221 µM)	0.125 (≈ 0.111 µM)	0.25 (≈ 0.221 µM)	0.25 (≈ 0.221 µM)	0.25 (≈ 0.221 µM)	8 (≈ 7.08 µM)	0.125 (≈ 0.111 µM)	64 (≈ 56.6 µM)	32 (≈ 28.3 µM)	32 (≈ 28.3 µM)	8 (≈ 7.08 µM)	16 (≈ 14.2 µM)	32 (≈ 28.3 µM)	CC(C)C[C@@H]1NC(=O)[C@@H](CC2CCCCC2)NC(=O)[C@H](CCN)NC(=O)[C@@H](NC(=O)[C@H](CCN)NC(=O)[C@@H](NC(=O)C(CCN)c2ccccc2)[C@@H](C)O)CCNC(=O)[C@H]([C@@H](C)O)NC(=O)[C@H](CCN)NC(=O)[C@H](CCN)NC1=O (single isomer, unassigned; isomer 2) [Example 64, 4-amino-2-phenylbutanoyl polymyxin [D-cyclohexylalanine]-6 nonapeptide isomer 2]	
